Emax data for 13 molecules are collected here from US9359297B2, “Spirolactam derivatives and uses of same” (H. Lundbeck A/S, priority 2009, dated 2016).

Molecules are shown by their SMILES.

The experiment addresses T1, rat metabotropic glutamate receptor 5 (rmGluR5) (Rattus norvegicus, UniProt P31424).
T1 construct: expressed in transfected cells
Description: Calcium mobilization (FLIPR) assay for negative allosteric modulation, EC80 glutamate, rmGluR5 in HEK 293. In kind it is cell-based. The settings on record: HEK293; rmGluR5, inhibition of EC80 glutamate response; read-out: FLIPR maximum inhibition. How it is done: The cDNA for rat metabotropic glutamate receptor 5 (rmGluR5) and the cDNA for human metabotropic glutamate receptor 5 (hmGluR5) were generous gifts from S. Nakanishi (Kyoto University, Kyoto, Japan). The rmGluR5 or hmGluR5 was stably expressed in a HEK 293 cell line and grown in Dulbecco's Modified Eagle Medium (DMEM) (Invitrogen, Carlsbad, Calif.) with supplements (10% bovine calf serum, 4 mM glutamine, 100 units/mL penicillin, 100 μg/mL streptomycin and 0.75 mM G1418) at 37° C., 5% CO2. Twenty-four hours prior to assay, cells were seeded into 384-well black wall microtiter plates coated with poly-D-lysine. Just prior to assay, media was aspirated and cells dye-loaded (25 μL/well) with 3 μM Fluo-4/0.01% pluronic acid in assay buffer (Hank's Balanced Saline Solution (HBSS)): 150 mM NaCl, 5 mM KCl, 1 mM CaCl2, 1 mM MgCl2, plus 20 mM N-2-Hydroxyethylpiperazine-N′-2-ethanesulfonic acid (HEPES), pH 7.4, 0.1% bovine serum albumin (BSA) and 2.5 mM probenicid) for 1 hour in 5% CO2 at 37° C. After excess dye was discarded, cells were washed in assay buffer and layered with a final volume equal to 30 μL/well. Basal fluorescence is monitored in a fluorometric imaging plate reader (FLIPR) (Molecular Devices, Sunnyvale, Calif.) with an excitation wavelength of 488 nm and an emission range of 500 to 560 nm. Laser excitation energy was adjusted so that basal fluorescence readings were approximately 10,000 relative fluorescent units. Cells were stimulated with an EC20 or an EC80 concentration of glutamate in the presence of a compound to be tested, both diluted in assay buffer, and relative fluorescent units were measured at defined intervals (exposure=0.6 sec) over a 3 min period at room temperature. Basal readings derived from negative controls were subtracted from all samples. Maximum change in fluorescence was calculated for each well. Concentration-response curves derived from the maximum change in fluorescence were analyzed by nonlinear regression (Hill equation). A negative modulator can be identified from these concentration-response curves if a compound produces a concentration dependent inhibition of the EC80 glutamate response.
(In general: Calcium flux is commonly read through the fluorescence of an indicator in the cells.)

T1 sequence (P31424 21-1203): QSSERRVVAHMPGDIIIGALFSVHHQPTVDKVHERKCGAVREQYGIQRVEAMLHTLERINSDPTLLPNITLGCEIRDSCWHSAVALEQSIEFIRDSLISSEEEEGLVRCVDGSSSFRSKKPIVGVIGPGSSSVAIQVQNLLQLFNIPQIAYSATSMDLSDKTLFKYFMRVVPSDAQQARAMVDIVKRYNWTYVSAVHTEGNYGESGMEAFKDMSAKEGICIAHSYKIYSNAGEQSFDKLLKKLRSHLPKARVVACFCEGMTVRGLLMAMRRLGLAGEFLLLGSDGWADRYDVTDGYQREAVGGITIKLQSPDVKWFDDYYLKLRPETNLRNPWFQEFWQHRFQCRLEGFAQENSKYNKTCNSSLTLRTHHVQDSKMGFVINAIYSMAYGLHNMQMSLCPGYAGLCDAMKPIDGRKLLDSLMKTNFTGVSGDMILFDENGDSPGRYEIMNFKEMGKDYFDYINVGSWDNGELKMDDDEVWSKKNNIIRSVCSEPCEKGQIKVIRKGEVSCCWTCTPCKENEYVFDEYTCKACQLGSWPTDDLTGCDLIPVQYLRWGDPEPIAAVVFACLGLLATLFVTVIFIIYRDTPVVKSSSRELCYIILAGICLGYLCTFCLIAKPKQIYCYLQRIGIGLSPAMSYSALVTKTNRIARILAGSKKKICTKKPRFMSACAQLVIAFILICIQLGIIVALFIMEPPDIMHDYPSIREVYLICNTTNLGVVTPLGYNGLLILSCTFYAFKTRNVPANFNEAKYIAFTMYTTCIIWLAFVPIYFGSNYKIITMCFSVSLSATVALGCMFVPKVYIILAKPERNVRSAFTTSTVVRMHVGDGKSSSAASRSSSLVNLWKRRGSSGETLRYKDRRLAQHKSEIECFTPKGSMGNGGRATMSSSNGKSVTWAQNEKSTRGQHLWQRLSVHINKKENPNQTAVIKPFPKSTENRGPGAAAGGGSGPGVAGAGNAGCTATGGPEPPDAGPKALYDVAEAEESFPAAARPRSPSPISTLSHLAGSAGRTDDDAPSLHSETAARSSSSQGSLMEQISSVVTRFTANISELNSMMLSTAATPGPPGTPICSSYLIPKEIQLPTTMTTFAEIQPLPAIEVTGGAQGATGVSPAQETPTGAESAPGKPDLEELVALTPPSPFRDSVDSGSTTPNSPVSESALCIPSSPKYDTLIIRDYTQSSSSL

Take `Cc1cccc(C(=O)N[C@H]2CCC[C@@]3(CCN(c4cccc(F)c4)C3=O)C2)n1` (relative stereo) [Example 18, trans-6-Methyl-pyridine-2-carboxylic acid [2-(3-fluoro-phenyl)-1-oxo-2-aza-spiro [4.5]dec-7-yl]-amide]: the Emax lay within 81 to 99%.

On to `O=C(N[C@H]1CCC[C@@]2(CCN(c3cccc(F)c3)C2=O)C1)c1ccccn1` (relative stereo) [Example 20, trans-Pyridine-2-carboxylic acid [2-(3-fluoro-phenyl)-1-oxo-2-aza-spiro [4.5]dec-7-yl]-amide], for which the Emax is 81 to 99%.

For the molecule `Cc1cncc(C(=O)N[C@H]2CCC[C@]3(CCN(c4cccc(F)c4)C3=O)C2)n1` (relative stereo) [Example 21, cis-6-Methyl-pyrazine-2-carboxylic acid [2-(3-fluoro-phenyl)-1-oxo-2-aza-spiro [4.5]dec-7-yl]-amide], the Emax is 81 to 99%.

As to `Cc1cncc(C(=O)N[C@H]2CCC[C@@]3(CCN(c4cccc(F)c4)C3=O)C2)n1` (relative stereo) [Example 22, trans-6-Methyl-pyrazine-2-carboxylic acid[2-(3-fluoro-phenyl)-1-oxo-2-aza-spiro [4.5]dec-7-yl]-amide], the Emax was in the range of 81 to 99%.

On to `Cc1cccc(N2CC[C@@]3(CCC[C@H](NC(=O)c4cccc(F)c4)C3)C2=O)n1` (relative stereo) [Example 24, trans-3-Fluoro-N-[2-(6-methyl-pyridin-2-yl)-1-oxo-2-aza-spiro[4.5]dec-7-yl]-benzamide], for which the Emax was 81 to 99%.

For the molecule `O=C(N[C@H]1CCC[C@]2(CCN(c3ccccn3)C2=O)C1)c1cccc(F)c1` (relative stereo) [Example 26, 3-Fluoro-N-(1-oxo-2-pyridin-2-yl-2-aza-spiro[4.5]dec-7-yl)-benzamide], the Emax fell in the range of 81 to 99%.

Regarding `Cc1ccnc(N2CC[C@]3(CCC[C@H](NC(=O)c4ccccn4)C3)C2=O)n1` (relative stereo) [Example 29, cis-Pyridine-2-carboxylic acid [2-(4-methyl-pyrimidin-2-yl)-1-oxo-2-aza-spiro [4.5]dec-7-yl]-amide], the Emax fell in the range of 81 to 99%.

As for `O=C(N[C@H]1CCC[C@]2(CCN(c3cc(F)ccn3)C2=O)C1)c1ccccn1` (relative stereo) [Example 30, cis-Pyridine-2-carboxylic acid [2-(4-fluoro-pyridin-2-yl)-1-oxo-2-aza-spiro[4.5]dec-7-yl]-amide], the Emax lay within 81 to 99%.

On to `Cc1cccc(C(=O)N[C@H]2CCC[C@]3(CCN(c4ccc(F)cn4)C3=O)C2)n1` (relative stereo) [Example 31, cis-6-Methyl-pyridine-2-carboxylic acid [2-(5-fluoro-pyridin-2-yl)-1-oxo-2-aza-spiro[4.5]dec-7-yl]-amide], for which the Emax lay within 81 to 99%.

For `Cc1cccc(C(=O)N[C@H]2CCC[C@]3(CCN(c4cc(F)ccn4)C3=O)C2)n1` (relative stereo) [Example 32, cis-6-Methyl-pyridine-2-carboxylic acid [2-(4-fluoro-pyridin-2-yl)-1-oxo-2-aza-spiro[4.5]dec-7-yl]-amide], the Emax lay within 81 to 99%.

Take `O=C(N[C@H]1CCC[C@]2(CCN(c3ccc(F)cn3)C2=O)C1)c1ccccn1` (relative stereo) [Example 33, cis-Pyridine-2-carboxylic acid [2-(5-fluoro-pyridin-2-yl)-1-oxo-2-aza-spiro [4.5]dec-7-yl]-amide]: the Emax lay within 81 to 99%.

For `Cc1cccc(C(=O)N[C@H]2CCC[C@]3(CCN(c4nccc(C)n4)C3=O)C2)n1` (relative stereo) [Example 34, cis-6-Methyl-pyridine-2-carboxylic acid [2-(4-methyl-pyrimidin-2-yl)-1-oxo-2-aza-spiro[4.5]dec-7-yl]-amide], the Emax lay within 81 to 99%.

With `O=C(N[C@H]1CCC[C@]2(CCN(c3ccc(F)cn3)C2=O)C1)c1cccc(F)c1` (relative stereo) [Example 35, cis-3-Fluoro-N-[2-(5-fluoro-pyridin-2-yl)-1-oxo-2-aza-spiro[4.5]dec-7-yl]-benzamide], the Emax lay within 81 to 99%.
